Reference: US20070275902A1, “Treatment of Phosphatidylinositol Phospholipid Disorders” (TRANSMOLECULAR, INC., priority 2003, published 2007)
“Also recorded” adds a separate entry of the source.

Experiment: Binding to phosphatidylinositol beads (PIP beads), biotinylated peptide detected with streptavidin-HRP/TMB
Details: biotinylated peptide at final concentration of 100 μM, two hours at room temperature, absorbance 595 nm
Procedure: Sedimented suspensions of PIP beads™ were obtained from Molecular Probes. The beads are supplied as 10 nanomoles of bound phosphoinositide per milliliter of sedimented suspension. PIP beads were pelleted by centrifugation at low speed in a Beckman Coulter Microfuge. Pelleted beads were washed in wash-binding buffer (0.5% NP-40 in phosphate-buffered saline, 1 ml, 3×5 minutes) and centrifuged at low speed following each wash. After washing, pelleted beads were resuspended in an equal volume of Wash/Binding buffer. 100 μl of bead suspension was used for each binding reaction. Biotinylated chlorotoxin was diluted in wash-binding buffer, added to each phosphatidylinositol bead suspension at a final concentration of 100 μM and allowed to incubate for two hours at room temperature. Following incubation with chlorotoxin, the bead suspensions were washed in Wash/Binding buffer (1 ml, 3×5 minutes) and centrifuged at low speed after each wash. Streptavidin horseradish peroxidase (Vector Labs) was diluted 1:1000 in wash-binding buffer, 100 μl of this solution was added to each of the phosphatidylinositol bead suspensions, and allowed to incubate […] at room temperature. Following incubation with streptavidin, bead suspensions were washed thoroughly in Wash/Binding buffer (1 ml, 5×10 minutes) and centrifuged at low speed after each wash. Immediately prior to use, a 1:1 mixture of TMB substrate (Pierce) was prepared, 100 μl of this solution was added to each reaction, and allowed to incubate at room temperature for up to thirty minutes. After incubation with substrate, bead suspensions were pelleted by centrifugation, supernatants were transferred to a 96-well plate and absorbance (λ=595 nm) was obtained using BioRad microplate reader and microplate manager software.
In order to confirm the identify of the minimal binding sequences within the alpha and beta peptides, each of the two peptides was incubated with different species of phosphatidylinositols as set forth in Example 1.

Substance	binding to different species of phosphatidylinositols
KGRGKSY [beta-domain peptide]	binds to multiple species of phosphatidylinositols; also recorded: bound to all of the same species of phosphatidylinositols as did chlorotoxin
TDHQMAR [alpha-domain peptide]	no binding activity
chlorotoxin	binding of chlorotoxin to different phosphatidylinositols
